Target: Vitamin K epoxide reductase complex subunit 1 (Homo sapiens, UniProt Q9BQB6)
Test: Inhibition of VKOR (unknown origin) in HEK293 expressing FIXgla-PC incubated for 48 hrs by ELISA
Assay type: cell-based

Vitamin K epoxide reductase complex subunit 1, sequence (Q9BQB6 whole entry, one chain of several): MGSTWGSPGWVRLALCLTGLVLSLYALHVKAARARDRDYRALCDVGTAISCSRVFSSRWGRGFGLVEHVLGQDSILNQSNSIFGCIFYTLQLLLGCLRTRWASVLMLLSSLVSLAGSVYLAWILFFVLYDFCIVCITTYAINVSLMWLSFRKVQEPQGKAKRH

SMILES | IC50 [nM]
C[C@]1(O)C[C@H](C2=C/C=C\C=C/C=C\2)[C@]2(COc3ccccc3C2=O)n2c(=O)n(-c3ccccc3)c(=O)n21 | 58.2
CC(=O)CC(c1c(O)c2ccccc2oc1=O)C1CCCCC1 (racemic) | 90.2
CC(=O)CC(C1=C/C=C(C(=O)O)\C=C/C=C\1)c1c(O)c2ccccc2oc1=O (racemic) | 1930
CC(=O)CC(c1c(O)c2ccccc2oc1=O)C1CCCCCCC1 (racemic) | 59
CC1(O)CC(C2=C/C=C\C=C/C=C\2)c2c(c3ccccc3oc2=O)O1 (racemic) | 4.5
